Tests used:
myometrial cells [1] = experiment: [3H]-thymidine incorporation into DNA (DNA synthesis); type: cell-based, human; conditions: FIG. 4; Captopril 0.1 and 1.0 mM; 48 h; serum-free medium
Experimental: Myometrial cells prepared as described previously were resuspended in culture medium containing DMEM supplemented with 10% (v/v) FCS, 10 mM L-glutamine, 20 mM hepes, 100 U/mi penicillin and 100/μg/ml streptomycin in 24 well plates at a density of approximately 250×10^3 cells per well and maintained at 37° C. in a humidified atmosphere of air/CO2 (19:1).
DNA synthesis was assayed by measuring [^3 H]-thymidine incorporation into DNA. Subconfluent myometrial cells were made quiescent by incubation with serum-free medium for 48 h, the medium being replaced with serum-free medium containing 0.2% (w/v) bovine serum albumin (BSA) and [^3 H]-thymidine (0.2 μCi/well). The cells were further incubated for 48 h in the presence of angiotensin-converting enzyme (ACE) inhibitor (0.1 and 1.0 mM Captopril, hatched and solid columns respectively) or angiotensin II (100 nM AgII, crossed column). The medium was then removed and the cells incubated with 10% cold trichloroacetic acid TCA) at 4° C. for 15 min. TCA-precipitated material was redissolved in 0.2 M NaOH and the radioactivity determined by liquid scintillation counting in a β-scintillation analyser. Positive and negative controls for proliferation were established by incubating cells with 10% fetal calf serum (square column) and by growth in the absence of the agonist in serum-free medium (open column).

[2] = system: angiotensin II-induced myometrial cell proliferation; experiment: Inhibition of angiotensin II-induced myometrial cell proliferation, Coulter counter; type: cell-based, human; conditions: for inhibition of angiotensin II-mediated cell proliferation: FIG. 5, 1.00 μM
Experimental: Tissue samples were placed into sterile calcium and magnesium-free HBSS containing penicillin (100 U/ml) and streptomycin (100 μg/ml) for transfer to the laboratory. Myometrial cells were isolated by collagenase digestion. Briefly, myometrium was finely chopped and incubated in HBSS containing 1 mg/ml collagenase IA, 20 mM Hepes, 100 U/L penicillin, 100 μg/ml streptomycin and 5 μg/ml fungizone at 37° C. until the cells were dispersed. Myometrial cells were obtained by centrifugation for 15 minutes at 400 g over 60% Percoll and the cells washed with HBSS. Myometrial cells were characterised by their ability to respond to oxytocin and staining for actin.
Cells were maintained in 175 cm^2 flasks in Dulbecco's modified Eagle's medium (DMEM) containing 10% (v/v) fetal calf serum (FCS), 1% L-glutamine,20 mM Hepes and 1% antibiotic-antimycotic mixture (10,000 U penicillin, 10 μg streptomycin, and 25 μg ml^-1 fungizone) at 37° C. in a humidified atmosphere of air/CO2 (19:1) until 95% confluent. Thereafter, the cells were trypsinised, washed and re-plated at a density of 10×10^3 cells per well in 24-well plates in 1 ml of DMEM with 10% FCS for the proliferation studies. After 24 hrs, the medium was removed and replaced with serum-free DMEM. After a further 24 hrs, the experiments were initiated on quiescent monolayers of myometrial cells. […] The corresponding medium was replaced every 24 hrs with fresh medium.
At defined time-points, the growth media was removed and the cells were washed with 1 ml of isotonic saline (0.9% sodium chloride), followed by the addition of 1 ml of 10 mM HEPES buffer containing 1.5 mM magnesium chloride, and 2 drops of Zap-oglobin (Coulter Electronics Ltd., Luton, Beds., UK) containing 2.5% acetic acid to each well. The 24-well plate was allowed to incubate at 37° C. for 10 min. After which, the suspended cells were pipetted up and down to disperse the cell clusters. The cell suspension was then added to 9 ml of counting solution containing 0.9% sodium chloride and 0.5% formalin in a Coulter counter container. […] The number of cells in each well was counted at the aperture size of 16 on the Coulter counter (Coulter Electronics Ltd., Luton, Beds U.K.). Three readings were taken for each well and a mean value of the three readings obtained. The mean (±SD) value of cell counts from the triplicate wells was calculated.
Myometrium cells were maintained in Dulbecco's modified Eagle's medium (MD) with 10% (v/v) FCS, containing 1% L-glutamine, 20 mM HEPES and 1% antibiotic-antimycotic mixture (10,000 U penicillin, 10 mg streptomycin) at 37° C. in a humidified atmosphere of air/CO2 (19:1) until 95% confluent. […] The cell growth was measured at day 4 and day 6 by counting cell numbers in a Coulter Counter. […]

[3] = system: non-AT1/non-AT2 angiotensin II recognition site; experiment: [125I]angiotensin II receptor autoradiography on myometrium/fibroid sections; type: binding, human; conditions: for displacement of [125I]angiotensin II from non-AT1/non-AT2 angiotensin II recognition site: FIG. 2, unlabeled ligand 0.1 nM, human non-pregnant myometrium and fibroid sections
Experimental: Frozen myometrium and fibroid tissues were surrounded in embedding medium (OCT compound, Miles Scientific) before 20 μm sections were cut using a cryostat (-15 to -1 9° C.) and thaw mounted onto gelatin-coated glass slides for receptor autoradiographic studies. Sections were stored (less than 2 week) desiccated at -80° C. until used.
Slide mounted human myometrial/fibroid sections were removed from storage and allowed approximately 30 min to equilibrate to room temperature. To reduce endogenous levels of angiotensin II in the tissue, the sections were preincubated for 60 min in incubation buffer (mM; sodium chloride, 150; sodium dihydrogen phosphate, 50; magnesium chloride, 10; ethyleneglycol-bis-(β-amino-ethyl ether)-N,N'-tetra-acetic acid, 5 and 0.4% w/v bovine serum albumin, pH 7.4) at 25° C. […] Immediately following incubation, the tissue sections were washed in ice-cold incubation buffer for 2 min and dipped (1 s) in ice-cold distilled water to remove buffer salts. The sections were rapidly dried in a stream of cold dry air and exposed to Hyperfilm-[^3 H]

myometrial cells [4] = experiment: Myometrial cell proliferation, cell counts in Coulter counter; type: cell-based, human; conditions: for cell count, 0 day (+/-SD) / cell count, 4 days (+/-SD) / cell count, 6 days (+/-SD): Table 1, in 1% FCS
Experimental: Tissue samples were placed into sterile calcium and magnesium-free HBSS containing penicillin (100 U/ml) and streptomycin (100 μg/ml) for transfer to the laboratory. Myometrial cells were isolated by collagenase digestion. Briefly, myometrium was finely chopped and incubated in HBSS containing 1 mg/ml collagenase IA, 20 mM Hepes, […], 100 μg/ml streptomycin and 5 μg/ml fungizone at 37° C. until the cells were dispersed. Myometrial cells were obtained by centrifugation for 15 minutes at 400 g over 60% Percoll and the cells washed with HBSS. Myometrial cells were characterised by their ability to respond to oxytocin and staining for actin.
Cells were maintained in 175 cm^2 flasks in Dulbecco's modified Eagle's medium (DMEM) containing 10% (v/v) fetal calf serum (FCS), 1% L-glutamine,20 mM Hepes and 1% antibiotic-antimycotic mixture (10,000 U penicillin, […], and 25 μg ml^-1 fungizone) at 37° C. in a humidified atmosphere of air/CO2 (19:1) until 95% confluent. Thereafter, the cells were trypsinised, washed and re-plated at a density of 10×10^3 cells per well in 24-well plates in 1 ml of DMEM with 10% FCS for the proliferation studies. After 24 hrs, the medium was removed and replaced with serum-free DMEM. After a further 24 hrs, the experiments were initiated on quiescent monolayers of myometrial cells. To the serum-starved myometrial cells was added either angiotensin II (0.1 μm or 1.0 μm) in the presence or absence of 1% FCS or bFGF (20 ng/ml) or FCS (1%) alone or DuP753 with or without angiotensin II (0.1 μM) and cell growth measured at day 4 and day 6 by counting cell numbers in a Coulter counter as described below. The corresponding medium was replaced every 24 hrs with fresh medium.
Calibration of the Coulter counter was achieved by counting the myometrium cell suspension at reduced aperture size ranging from 0 to 32. A calibration curve was constructed from the cell counts on the function of the aperture size, and the aperture size corresponding to the middle point of the plateau part of the calibration curve was used for the cell counting. The aperture size used for myometrium cell counting was 16.
At defined time-points, the growth media was removed and the cells were washed with 1 ml of isotonic saline (0.9% sodium chloride), followed by the addition of 1 ml of 10 mM HEPES buffer containing 1.5 mM magnesium chloride, and 2 drops of Zap-oglobin (Coulter Electronics Ltd., Luton, Beds., UK) containing 2.5% acetic acid to each well. The 24-well plate was allowed to incubate at 37° C. for 10 min. After which, the suspended cells were pipetted up and down to disperse the cell clusters. The cell suspension was then added to 9 ml of counting solution containing 0.9% sodium chloride and 0.5% formalin in a Coulter counter container. Each well was washed three times with the counting solution from the same container and effluent collected in the same container. The number of cells in each well was counted at the aperture size of 16 on the Coulter counter (Coulter Electronics Ltd., Luton, Beds U.K.). Three readings were taken for each well and a mean value of the three readings obtained. The mean (±SD) value of cell counts from the triplicate wells was calculated.
As discussed above, FIG. 3(A) illutrates the effect of angiotensin II on myometrial cell proliferation. Myometrium cells were maintained in Dulbecco's modified Eagle's medium (MD) with 10% (v/v) FCS, containing 1% L-glutamine, 20 mM HEPES and 1% antibiotic-antimycotic mixture (10,000 U penicillin, 10 mg streptomycin) at 37° C. in a humidified atmosphere of air/CO2 (19:1) until 95% confluent. For the proliferation studies, the cells were plated at a density of 10×10^3 cells per well in 24 well plates in 1 ml of DMEM with 10% FCS. After 24 hrs the medium was removed and replaced with serum-free DMEM. After a further 24 hrs, the experiment was initiated on quiescent monolayers of myometrial cells. […]

## C[C@H](CS)C(=O)N1CCC[C@H]1C(=O)O [Captopril]
Myometrial cells [1]
  reduction of DNA synthesis, of control (0% FCS): ~50%

## CCCCc1nc(Cl)c(CO)n1Cc1ccc(-c2ccccc2-c2nn[nH]n2)cc1 [DuP753]
[2]; FIG. 3(B), DuP753 1 μM, angiotensin II 0.1 μM, 1% FCS
  inhibition of the effects of angiotensin II on cell proliferation: inhibits
[2]
  inhibition of angiotensin II-mediated cell proliferation: significantly inhibited

## Cc1cc(Cn2cnc3c2CC(C(=O)O)N(C(=O)C(c2ccccc2)c2ccccc2)C3)ccc1N (stereo not drawn) [PD123177]
[2]
  inhibition of angiotensin II-mediated cell proliferation: significantly inhibited
[2]; preliminary data
  inhibition of angiotensin II-mediated cell growth: inhibits

## Sar-Ala-angiotensin II
[3]
  displacement of [125I]angiotensin II from non-AT1/non-AT2 angiotensin II recognition site: can selectively displace

## Sar-Thr-angiotensin II
[3]
  displacement of [125I]angiotensin II from non-AT1/non-AT2 angiotensin II recognition site: can selectively displace

## angiotensin II (DRVYIHPF; Angiotensin-2; UniProt P01019 25-32, looked up)
[3]; FIG. 1, cold angiotensin II (1 μM)
  intensity of non-AT1/non-AT2 angiotensin II recognition site labelling in fibroid tissue: only disappears
Myometrial cells [4]; FIG. 3(A), 0.1 μM, after six days in culture
  increase in myometrial cell proliferation compared to cells in culture medium devoid of angiotensin II: ~100%
Myometrial cells [4]
  cell count, 0 day (+/-SD): 64.33 +/- 2.73
  cell count, 4 days (+/-SD): 167.33 +/- 21.55
  cell count, 6 days (+/-SD): 333.67 +/- 7.51

## bFGF: Basic fibroblast growth factor, classic growth factor, from RD Systems
Myometrial cells [4]
  cell count, 0 day (+/-SD): 63.90 +/- 1.88
  cell count, 4 days (+/-SD): 167.33 +/- 25.11
  cell count, 6 days (+/-SD): 307.33 +/- 49.69
